Data on 42 molecules can be found in patent US7504426B2, “Heterocyclic compounds” (Janssen Pharmaceutica N.V., priority 2003, dated 2009).

The test system of one test is human eosinophils. The test can be described thus: Inhibition of histamine-induced eosinophil shape change (GAFS). Particulars: histamine 0 μM; HR antagonist 10 μM. The format is cell-based. The method, then: Eosinophil accumulation in sites of allergic reaction is a well-known characteristic of allergic rhinitis and asthma. […] Shape change is a cellular characteristic that precedes eosinophil chemotaxis.
Human granulocytes were isolated from human blood by a Ficoll gradient. The red blood cells were lysed with 5-10X Qiagen lysis buffer at room temperature for 5-7 min. Granulocytes were harvested and washed once with FACS buffer. The cells were resuspended at a density of 2×10^6 cells/mL in reaction buffer. […] Ten minutes later the cells were transferred to ice and fixed with 250 μL of ice-cold fixative buffer (2% formaldehyde) for 1 min.
The change in shape of eosinophils is due to cytoskeletal changes that precede chemotaxis and thus is a measure of chemotaxis.
On to `CN(C)CCOC(c1ccccc1)c1ccccc1` [diphenhydramine], for which the “Fold Change (eosinophil shape change)” value came to 1.00.

Still in this test, the particulars now being: histamine 0.01 μM; HR antagonist 10 μM or none.
As for `CN(C)CCOC(c1ccccc1)c1ccccc1` [diphenhydramine], the “Fold Change (eosinophil shape change)” value is 1.03.

The same test, now with this note: histamine 0.1 μM; HR antagonist 10 μM or none.
With `CN(C)CCOC(c1ccccc1)c1ccccc1` [diphenhydramine], the “Fold Change (eosinophil shape change)” value came out at 1.18.

Staying with this test, now noted: histamine 1 μM; HR antagonist 10 μM or none.
For the molecule `CN(C)CCOC(c1ccccc1)c1ccccc1` [diphenhydramine], the “Fold Change (eosinophil shape change)” value stood at 1.50.

The test is the same for the next values; noted with them: histamine 10 μM; HR antagonist 10 μM or none.
Take `CN(C)CCOC(c1ccccc1)c1ccccc1` [diphenhydramine]: the “Fold Change (eosinophil shape change)” value is on record as 1.63.

The same test, now with this note: human eosinophils.
In the case of `CN(C)CCOC(c1ccccc1)c1ccccc1` [diphenhydramine], the “effect on histamine-induced shape change” value is “did not alter the histamine-induced shape change”.

The target in a further test is human histamine H4 receptor (Homo sapiens, UniProt Q9H3N8). The test can be described thus: biochemical.
Sequence of human histamine H4 receptor (Q9H3N8 whole entry): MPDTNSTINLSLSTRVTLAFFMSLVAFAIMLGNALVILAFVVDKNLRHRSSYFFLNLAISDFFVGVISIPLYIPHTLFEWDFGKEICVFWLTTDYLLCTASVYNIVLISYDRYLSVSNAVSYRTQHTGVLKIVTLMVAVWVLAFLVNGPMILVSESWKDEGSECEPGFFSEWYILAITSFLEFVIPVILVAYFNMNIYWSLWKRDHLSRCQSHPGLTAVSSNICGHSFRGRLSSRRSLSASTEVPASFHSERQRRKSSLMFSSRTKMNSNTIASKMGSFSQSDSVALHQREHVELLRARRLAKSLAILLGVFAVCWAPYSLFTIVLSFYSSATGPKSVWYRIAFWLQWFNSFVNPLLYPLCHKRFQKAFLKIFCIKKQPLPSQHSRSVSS
Conditions: not given
On to `CN1CCN(C(=O)c2nc3ccccc3[nH]2)CC1` [Example 1, (1H-Benzoimidazol-2-yl)-(4-methyl-piperazin-1-yl)-methanone], for which the inhibitory constant (Ki) turned out to be 32 nM.

Consider `CCN1CCN(C(=O)c2nc3ccccc3[nH]2)CC1` [Example 2, (1H-Benzoimidazol-2-yl)-(4-ethyl-piperazin-1-yl)-methanone], for which affinity was put at a Ki of 490 nM.

In the case of `CC1CN(C(=O)c2nc3ccccc3[nH]2)CCN1` (centres unmarked) [Example 3, (1H-Benzoimidazol-2-yl)-(3-methyl-piperazin-1-yl)-methanone], the Ki worked out at 331 nM.

Turning to `CN1CCCN(C(=O)c2nc3ccccc3[nH]2)CC1` [Example 4, (1H-Benzoimidazol-2-yl)-(4-methyl-[1,4]diazepan-1-yl)-methanone], the affinity, expressed as Ki, was 1400 nM.

As to `CN1C2CCC1CC(NC(=O)c1nc3ccccc3[nH]1)C2` (centres unmarked) [Example 5, 1H-Benzoimidazole-2-carboxylic acid (8-methyl-8-aza-bicyclo[3.2.1]oct-3-yl)-amide], the Ki is 89 nM.

On to `CC1CN(C(=O)c2nc3cc(Cl)ccc3[nH]2)CCN1` (centres unmarked) [Example 8, (5-Chloro-1H-benzoimidazol-2-yl)-(3-methyl-piperazin-1-yl)-methanone], for which the affinity corresponds to a Ki of 300 nM.

`CCN1CCN(C(=O)c2nc3cc(F)c(F)cc3[nH]2)CC1` [Example 10, (5,6-Difluoro-1H-benzoimidazol-2-yl)-(4-ethyl-piperazin-1-yl)-methanone] gave a Ki of 620 nM.

With `CC1CN(C(=O)c2nc3cc(F)c(F)cc3[nH]2)CCN1` (centres unmarked) [Example 11, (5,6-Difluoro-1H-benzoimidazol-2-yl)-(3-methyl-piperazin-1-yl)-methanone], the inhibition constant (Ki) stood at 355 nM.

Molecule `CN1CCCN(C(=O)c2nc3cc(F)c(F)cc3[nH]2)CC1` [Example 12, (5,6-Difluoro-1H-benzoimidazol-2-yl)-(4-methyl-[1,4]diazepan-1-yl)-methanone] gave a Ki of 807 nM.

As for `CN1C2CCC1CC(NC(=O)c1nc3cc(F)c(F)cc3[nH]1)C2` (centres unmarked) [Example 13, 5,6-Difluoro-1H-benzoimidazole-2-carboxylic acid (8-methyl-8-aza-bicyclo[3.2.1]oct-3-yl)-amide], the inhibitory constant (Ki) was found to be 380 nM.

In turn, `CN1CCN(C(=O)c2nc3cc(F)c(Cl)cc3[nH]2)CC1` [Example 14, (6-Chloro-5-fluoro-1H-benzoimidazol-2-yl)-(4-methyl-piperazin-1-yl)-methanone] came in with a Ki of 53 nM.

`O=C(c1nc2cc(F)c(Cl)cc2[nH]1)N1CCNCC1` [Example 15, (6-Chloro-5-fluoro-1H-benzoimidazol-2-yl)-piperazin-1-yl-methanone]: affinity was put at a Ki of 216 nM.

The molecule `CN1CCCN(C(=O)c2nc3cc(F)c(Cl)cc3[nH]2)CC1` [Example 16, (6-Chloro-5-fluoro-1H-benzoimidazol-2-yl)-(4-methyl-[1,4]diazepan-1-yl)-methanone] came in with a Ki of 1300 nM.

`CN1C2CCC1CC(NC(=O)c1nc3cc(F)c(Cl)cc3[nH]1)C2` (centres unmarked) [Example 17, 6-Chloro-5-fluoro-1H-benzoimidazole-2-carboxylic acid (8-methyl-8-aza-bicyclo[3.2.1]oct-3-yl)-amide] registered an inhibition constant (Ki) of 535 nM.

`Cc1cc2nc(C(=O)N3CCN(C)CC3)[nH]c2cc1Cl` [Example 18, (5-Chloro-6-methyl-1H-benzoimidazol-2-yl)-(4-methyl-piperazin-1-yl)-methanone] displayed an inhibition constant Ki of 226 nM.

For the molecule `Cc1cc2nc(C(=O)N3CCNCC3)[nH]c2cc1Cl` [Example 19, (5-Chloro-6-methyl-1H-benzoimidazol-2-yl)-piperazin-1-yl-methanone], affinity was put at a Ki of 1000 nM.

For `Cc1cccc2[nH]c(C(=O)N3CCNC(C)C3)nc12` (centres unmarked) [Example 20, (4-Methyl-1H-benzoimidazol-2-yl)-(3-methyl-piperazin-1-yl)-methanone], the inhibition constant (Ki) stood at 156 nM.

`CCN1CCN(C(=O)c2nc3c(C)cccc3[nH]2)CC1` [Example 21, (4-Ethyl-piperazin-1-yl)-(4-methyl-1H-benzoimidazol-2-yl)-methanone] returned an inhibition constant (Ki) of 468 nM.

In turn, `Cc1cccc2[nH]c(C(=O)N3CCN(C)CC3)nc12` [Example 22, (4-Methyl-1H-benzoimidazol-2-yl)-(4-methyl-piperazin-1-yl)-methanone] came in with a Ki of 31 nM.

As to `Cc1cccc2[nH]c(C(=O)N3CCNCC3)nc12` [Example 23, (4-Methyl-1H-benzoimidazol-2-yl)-piperazin-1-yl-methanone], the Ki was determined as 135 nM.

Consider `Cc1cccc2[nH]c(C(=O)N[C@H]3C[C@H]4CC[C@@H](C3)N4C)nc12` [Example 24, 4-Methyl-1H-benzoimidazole-2-carboxylic acid (8-methyl-8-aza-bicyclo[3.2.1]oct-3-yl)-amide], for which the inhibitory constant (Ki) is 270 nM.

`Cc1ccc2[nH]c(C(=O)N3CCN(C)CC3)nc2c1` [Example 26, (5-Methyl-1H-benzoimidazol-2-yl)-(4-methyl-piperazin-1-yl)-methanone] had a Ki of 528 nM.

Turning to `CN1CCN(C(=O)c2nc3cc(C(F)(F)F)ccc3[nH]2)CC1` [Example 27, (4-Methyl-piperazin-1-yl)-(5-trifluoromethyl-1H-benzoimidazol-2-yl)-methanone], the Ki was 11 nM.

For the molecule `O=C(c1nc2cc(C(F)(F)F)ccc2[nH]1)N1CCNCC1` [Example 28, Piperazin-1-yl-(5-trifluoromethyl-1H-benzoimidazol-2-yl)-methanone], the Ki worked out at 420 nM.

Regarding `CN1CCN(C(=O)c2nc3cc(F)ccc3[nH]2)CC1` [Example 29, (5-Fluoro-1H-benzoimidazol-2-yl)-(4-methyl-piperazin-1-yl)-methanone], the inhibitory constant (Ki) worked out at 26 nM.

`CCN1CCN(C(=O)c2nc3cc(F)ccc3[nH]2)CC1` [Example 30, (4-Ethyl-piperazin-1-yl)-(5-fluoro-1H-benzoimidazol-2-yl)-methanone] came in with an inhibition constant Ki of 370 nM.

Turning to `O=C(c1nc2cc(F)ccc2[nH]1)N1CCNCC1` [Example 31, (5-Fluoro-1H-benzoimidazol-2-yl)-piperazin-1-yl-methanone], the Ki turned out to be 42 nM.

Turning to `CC1CN(C(=O)c2nc3cc(F)ccc3[nH]2)CCN1` (centres unmarked) [Example 32, (5-Fluoro-1H-benzoimidazol-2-yl)-(3-methyl-piperazin-1-yl)-methanone], the Ki worked out at 460 nM.

On to `CN1CCN(C(=O)c2nc3cccnc3[nH]2)CC1` [Example 34, (3H-Imidazo[4,5-b]pyridin-2-yl)-(4-methyl-piperazin-1-yl)-methanone], for which the inhibition constant (Ki) came to 833 nM.

The molecule `CN1CCN(C(=O)c2nc3ccccc3o2)CC1` [Example 35, Benzooxazol-2-yl-(4-methyl-piperazin-1-yl)-methanone] returned an inhibitory constant (Ki) of 620 nM.

In turn, `Cc1cccc2nc(C(=O)N3CCN(C)CC3)oc12` [Example 36, (7-Methyl-benzooxazol-2-yl)-(4-methyl-piperazin-1-yl)-methanone] displayed a Ki of 1200 nM.

In the case of `Cc1ccc2oc(C(=O)N3CCN(C)CC3)nc2c1` [Example 37, (5-Methyl-benzooxazol-2-yl)-(4-methyl-piperazin-1-yl)-methanone], the affinity corresponds to a Ki of 1300 nM.

As to `Cc1cccc2oc(C(=O)N3CCN(C)CC3)nc12` [Example 38, (4-Methyl-benzooxazol-2-yl)-(4-methyl-piperazin-1-yl)-methanone], the Ki is 1600 nM.

The molecule `CN1CCN(C(=O)c2nc3ccccc3s2)CC1` [Example 39, Benzothiazol-2-yl-(4-methyl-piperazin-1-yl)-methanone] returned an inhibition constant Ki of 810 nM.

`CN1CCN(C(=O)c2nc3cc(C(=O)c4ccccc4)ccc3[nH]2)CC1` [Example 40, (5-Benzoyl-1H-benzoimidazol-2-yl)-(4-methyl-piperazin-1-yl)-methanone] gave an inhibition constant Ki of 8000 nM.

`CN1CCN(C(=O)c2nc3c(Cl)cccc3[nH]2)CC1` [Example 41, (4-Chloro-1H-benzoimidazol-2-yl)-(4-methyl-piperazin-1-yl)-methanone] returned a Ki of 57 nM.

Turning to `CN1CCN(C(=N)c2nc3cc(Cl)ccc3[nH]2)CC1` [Example 45, C-(5-Chloro-1H-benzoimidazol-2-yl)-C-(4-methyl-piperazin-1-yl)-methyleneamine], the affinity, expressed as Ki, was 110 nM.

Take `CN1CCN(C(=O)c2nc3c(F)cc(F)cc3[nH]2)CC1` [Example 46, (4,6-Difluoro-1H-benzoimidazol-2-yl)-(4-methyl-piperazin-1-yl)-methanone]: the Ki is 64 nM.

`CN1CCN(C(=O)c2nc3cc([N+](=O)[O-])ccc3[nH]2)CC1` [Example 47, (4-Methyl-piperazin-1-yl)-(5-nitro-1H-benzoimidazol-2-yl)-methanone]: the inhibition constant (Ki) was 158 nM.

Molecule `Cc1c(F)ccc2[nH]c(C(=O)N3CCN(C)CC3)nc12` [Example 48, (5-Fluoro-4-methyl-1H-benzoimidazol-2-yl)-(4-methyl-piperazin-1-yl)-methanone] came in with an inhibition constant (Ki) of 23 nM.

In the case of `CN1CCN(C(=O)c2nc3cc(Br)ccc3[nH]2)CC1` [Example 49, (5-Bromo-1H-benzoimidazol-2-yl)-(4-methyl-piperazin-1-yl)-methanone], the inhibition constant Ki came out at 51 nM.

The term Ki denotes a measure of affinity in units of concentration, obtained from inhibition or displacement. A lower Ki goes with tighter binding.
